From US20220396567A1, “SUBSTITUTED PYRIMIDINE FOR THE TREATMENT AND PROPHYLAXIS OF HEPATITIS B VIRUS INFECTION” (Hoffmann-La Roche Inc., priority 2019, published 2022)

Tested on: HBV
Experiment: Cryopreserved primary human hepatocytes (PHH) HBV infection assay, extracellular HBsAg by CLIA
Assay type: cell-based
Settings: Hepatitis B virus, Hepatocyte, 216 h; HBV-infected cryopreserved PHH; extracellular HBsAg at 9 days post-compound treatment; 4 parameter logistic curve fit
Method: This assay is used to confirm the anti-HBV effect of the compounds in HBV PHH infection assay. Cryopreserved PHH (BioreclamationIVT, Lot YJM) was thawed at 37° C. and gently transferred into pre-warmed InVitroGRO HT medium (BioreclamationIVT, Cat. S03317). The mixture was centrifuged at 70 relative centrifugal force (RCF) for 3 min at RT, and the supernatant was discarded. Pre-warmed InVitroGRO CP medium (BioreclamationIVT, Cat #S03316) was added to the cell pellet to gently re-suspend cells. The cells were seeded at the density of 5.8×10^4 cells per well to collagen I coated 96-well plate (Gibco, Cat. A1142803) with the InVitroGRO CP medium. All plates were incubated at 37° C. with 5% CO2 and 85% humidity.
At 20 hrs after plating, the medium was changed to PHH culture medium (Dulbecco's Modified Eagle Medium (DMEM)/F12 (1:1) (Gibco, Cat. 11320-033), 10% fetal bovine serum (Gibco Cat. 10099141), 100 U/mL penicillin, 100 μg/mL streptomycin (Gibco, Cat. 151401-122), […] (Invitrogen Cat. PHG0311L), 20 ng/mL dexamethasone (Sigma, Cat. D4902) and 250 ng/mL human recombinant insulin (Gibco, Cat. 12585-014)). And the cells were incubated at 37° C. with 5% CO2 and 85% humidity for 4 hrs. The medium was then changed to pre-warmed PHH culture medium containing 4% polyethylene glycol (PEG) MW8000 (Sigma, Cat. P1458-50 ML) and 1% DMSO (Sigma, Cat. D2650). 5.8×10^6 genomic equivalents of HBV were added into the medium.
At 24 hrs post-infection, the cells were gently washed with PBS and refreshed with PHH culture medium supplemented with 1% DMSO, and 0.25 mg/mL Matrix gel (Corning, Cat. 356237) at 200 μL per well. All plates were immediately placed in at 37° C. CO2 incubator.
24 hrs later, serial dilutions of compounds made with DMSO were further diluted with the same culture medium (PHH culture medium supplemented with 1% DMSO and 0.25 mg/mL Matrix gel as described above) before they were added to the cells to reach desired final compound concentrations and 1% DMSO concentration. The medium containing the compounds were refreshed every three days.
At 9 days post-compound treatment, extracellular HBsAg level were measured with Chemiluminescence Immuno Assay (CLIA) kit (Autobio, HBsAg Quantitative CLIA).
HBsAg IC50 was derived from the dose-response curve using 4 parameter logistic curve fit method. The compounds of formula (I) have HBsAg IC50<20 μM, particularly <1 μM.

`CCNc1nc(NCc2cccc(C(F)(F)F)c2)c(C#N)c(-c2ccco2)n1` [Example 14, 2-(ethylamino)-4-(2-furyl)-6-[[3-(trifluoromethyl)phenyl]methylamino]pyrimidine-5-carbonitrile] gave an IC50 of 2.76 µM.
Work on `CCOC(=O)c1c(NCc2c(Br)ccc(OC)c2OC)nc(N)nc1-c1ccco1` [Example 44, Ethyl 2-amino-4-[(6-bromo-2,3-dimethoxy-phenyl)methylamino]-6-(2-furyl)pyrimidine-5-carboxylate] yielded an IC50 of 8.06 µM.
For `CN(C)c1nc(NCc2cccc(C(F)(F)F)c2)c(C#N)c(-c2ccco2)n1` [Example 16, 2-(dimethylamino)-4-(2-furyl)-6-[[3-(trifluoromethyl)phenyl]methylamino]pyrimidine-5-carbonitrile], the IC50 was 6.75 µM.
Compound `Cc1nc(NCc2ccc(OC(C)C)c(Br)c2)c(C#N)c(-c2ccco2)n1` [Example 21, 4-[(3-bromo-4-isopropoxy-phenyl)methylamino]-6-(2-furyl)-2-methyl-pyrimidine-5-carbonitrile] has an IC50 of 6.66 µM.
For `CC(Nc1nc(N)nc(-c2ccco2)c1C#N)c1ccccc1` (centres unmarked) [Example 1, 2-amino-4-(2-furyl)-6-(1-phenylethylamino)pyrimidine-5-carbonitrile], the IC50 was 5.93 µM.
In the case of `N#Cc1c(NCCc2ccccc2)ncnc1-c1ccco1` [Example 28, 4-(2-furyl)-6-(2-phenylethylamino)pyrimidine-5-carbonitrile], the IC50 is reported as 0.42 µM.
`CN(C)c1nc(NCC2CCCC2)c(C(=O)O)c(-c2ccco2)n1` [Example 43, 4-(cyclopentylmethylamino)-2-(dimethylamino)-6-(2-furyl)pyrimidine-5-carboxylic Acid] gave an IC50 of 5.55 µM.
`COc1ccc(Br)c(CNc2nc(C)nc(-c3ccco3)c2C#N)c1OC` [Example 20, 4-[(6-bromo-2,3-dimethoxy-phenyl)methylamino]-6-(2-furyl)-2-methyl-pyrimidine-5-carbonitrile] was tested, and the IC50 was 2.66 µM.
In the case of `N#Cc1c(NCC2CCC(F)(F)C2)nc(N)nc1-c1ccco1` (centres unmarked) [Example 8, 2-amino-4-[(3,3-difluorocyclopentyl)methylamino]-6-(2-furyl)pyrimidine-5-carbonitrile], the IC50 is reported as 10.2 µM.
`N#Cc1c(NCc2ccccc2N)ncnc1-c1ccco1` [Example 31, 4-[(2-aminophenyl)methylamino]-6-(2-furyl)pyrimidine-5-carbonitrile] gave an IC50 of 0.27 µM.
Work on `Nc1nc(NCc2cccc(C(F)(F)F)c2)c(C(=O)N2CCOCC2)c(-c2ccco2)n1` [Example 55, [2-amino-4-(2-furyl)-6-[[3-(trifluoromethyl)phenyl]methylamino]pyrimidin-5-yl]-morpholino-methanone] yielded an IC50 of 10.1 µM.
`CC(Nc1nc(N)nc(-c2ccco2)c1C#N)c1cccc(C(F)(F)F)c1` (centres unmarked) [Example 5, 2-amino-4-(2-furyl)-6-[1-[3-(trifluoromethyl)phenyl]ethylamino]pyrimidine-5-carbonitrile] gave an IC50 of 0.47 µM.
Work on `Cc1ccccc1CNc1nc(N)nc(-c2ccco2)c1C(=O)O` [Example 39, 2-amino-4-(2-furyl)-6-(o-tolylmethylamino)pyrimidine-5-carboxylic Acid] yielded an IC50 of 9.07 µM.
In the case of `CCOC(=O)c1c(NCc2cccc(C(F)(F)F)c2)nc(NCC(C)C)nc1-c1ccco1` [Example 49, Ethyl 4-(2-furyl)-2-(isobutylamino)-6-[[3-(trifluoromethyl)phenyl]methylamino]pyrimidine-5-carboxylate], the IC50 is reported as 5.35 µM.
Work on `COCCNc1nc(NCc2cccc(Cl)c2)c(C(=O)O)c(-c2ccco2)n1` [Example 59, 4-[(3-chlorophenyl)methylamino]-6-(2-furyl)-2-(2-methoxyethylamino)pyrimidine-5-carboxylic Acid] yielded an IC50 of 3.71 µM.
For `COc1cccc(CN(C)c2nc(N)nc(-c3ccco3)c2C#N)c1` [Example 6], the IC50 was 10.1 µM.
`CCOc1nc(NCc2cccc(C(F)(F)F)c2)c(C#N)c(-c2ccco2)n1` [Example 18, 2-ethoxy-4-(2-furyl)-6-[[3-(trifluoromethyl)phenyl]methylamino]pyrimidine-5-carbonitrile] gave an IC50 of 6.02 µM.
`CC(C)CNc1ncnc(-c2ccco2)c1C#N` [Example 26, 4-(2-furyl)-6-(isobutylamino)pyrimidine-5-carbonitrile] showed an IC50 of 5.7 µM.
`COCCNc1nc(NCc2cccc(C(F)(F)F)c2)c(C(=O)O)c(-c2ccco2)n1` [Example 46, 4-(2-furyl)-2-(2-methoxyethylamino)-6-[[3-(trifluoromethyl)phenyl]methylamino]pyrimidine-5-carboxylic Acid] showed an IC50 of 4.31 µM.
`CN(C)c1nc(NCc2ccccc2N)cc(-c2ccco2)n1` [Example 33, N4-[(2-aminophenyl)methyl]-6-(2-furyl)-N2,N2-dimethyl-pyrimidine-2,4-diamine] showed an IC50 of 7.58 µM.
For `CC1(C)CC(CNc2nc(N)nc(-c3ccco3)c2C#N)CC(C)(C)O1` [Example 3, 2-amino-4-(2-furyl)-6-[(2,2,6,6-tetramethyltetrahydropyran-4-yl)methylamino]pyrimidine-5-carbonitrile], the IC50 was 1.67 µM.
`CC(C)Oc1ccc(CNc2nc(N)nc(-c3ccco3)c2C#N)cc1Br` [Example 2, 2-amino-4-[(3-bromo-4-isopropoxy-phenyl)methylamino]-6-(2-furyl)pyrimidine-5-carbonitrile] showed an IC50 of 3.28 µM.
`COCCCNc1nc(NCc2cccc(C(F)(F)F)c2)c(C(=O)O)c(-c2ccco2)n1` [Example 51, 4-(2-furyl)-2-(3-methoxypropylamino)-6-[[3-(trifluoromethyl)phenyl]methylamino]pyrimidine-5-carboxylic Acid] showed an IC50 of 9.61 µM.
Compound `CN(Cc1ccccc1)c1nc(N)nc(-c2ccco2)c1C(=O)O` [Example 42, 2-amino-4-[benzyl(methyl)amino]-6-(2-furyl)pyrimidine-5-carboxylic Acid] has an IC50 of 5.27 µM.
Work on `Nc1nc(NCc2cccc(C(F)(F)F)c2)c(C(=O)N2CCC2)c(-c2ccco2)n1` [Example 52, [2-amino-4-(2-furyl)-6-[[3-(trifluoromethyl)phenyl]methylamino]pyrimidin-5-yl]-(azetidin-1-yl)methanone] yielded an IC50 of 7.94 µM.
In the case of `Nc1nc(NCc2cccc(C(F)(F)F)c2)c(C(=O)N2CCCC2)c(-c2ccco2)n1` [Example 53, [2-amino-4-(2-furyl)-6-[[3-(trifluoromethyl)phenyl]methylamino]pyrimidin-5-yl]-pyrrolidin-1-yl-methanone], the IC50 is reported as 9.25 µM.
With `N#Cc1c(NCc2ccccc2Cl)ncnc1-c1ccco1` [Example 24, 4-[(2-chlorophenyl)methylamino]-6-(2-furyl)pyrimidine-5-carbonitrile] the IC50 was 3.07 µM.
Work on `N#Cc1c(NCC2CCCC2)ncnc1-c1ccco1` [Example 29, 4-(cyclopentylmethylamino)-6-(2-furyl)pyrimidine-5-carbonitrile] yielded an IC50 of 2.61 µM.
In the case of `CCOC(=O)c1c(NCc2c(Br)ccc(OC)c2OC)nc(C(C)C)nc1-c1ccco1` [Example 62, Ethyl 4-[(6-bromo-2,3-dimethoxy-phenyl)methylamino]-6-(2-furyl)-2-isopropyl-pyrimidine-5-carboxylate], the IC50 is reported as 10.2 µM.
For `CC(Nc1cc(-c2ccco2)nc(N(C)C)n1)c1cccc(C(F)(F)F)c1` (centres unmarked) [Example 32, 6-(2-furyl)-N2,N2-dimethyl-N4-[1-[3-(trifluoromethyl)phenyl]ethyl]pyrimidine-2,4-diamine], the IC50 was 3.49 µM.
`N#Cc1c(NC2CCCC2)nc(N)nc1-c1ccco1` [Example 9, 2-amino-4-(cyclopentylamino)-6-(2-furyl)pyrimidine-5-carbonitrile] was tested, and the IC50 was 8.68 µM.
For `Nc1nc(NCc2cccc(C(F)(F)F)c2)c(C(=O)N2CCCCC2)c(-c2ccco2)n1` [Example 54, [2-amino-4-(2-furyl)-6-[[3-(trifluoromethyl)phenyl]methylamino]pyrimidin-5-yl]-(1-piperidyl)methanone], the IC50 was 6.59 µM.
Work on `COc1nc(NCc2cccc(C(F)(F)F)c2)c(C#N)c(-c2ccco2)n1` [Example 17, 4-(2-furyl)-2-methoxy-6-[[3-(trifluoromethyl)phenyl]methylamino]pyrimidine-5-carbonitrile] yielded an IC50 of 3.35 µM.
For `CCOC(=O)c1c(NCc2cccc(C(F)(F)F)c2)nc(C)nc1-c1ccco1` [Example 61, Ethyl 4-(2-furyl)-2-methyl-6-[[3-(trifluoromethyl)phenyl]methylamino]pyrimidine-5-carboxylate], the IC50 was 7.38 µM.
Compound `N#Cc1c(NCC2(c3ccccc3)CCCC2)ncnc1-c1ccco1` [Example 30, 4-(2-furyl)-6-[(1-phenylcyclopentyl)methylamino]pyrimidine-5-carbonitrile] has an IC50 of 9.06 µM.
